# Assay results reported in patent publication US20100299778A1, “NUCLEOTIDE SEQUENCE ENCODING ARTEMISINIC ALDEHYDE DOUBLE BOND REDUCTASE, ARTEMISINIC ALDEHYDE DOUBLE BOND REDUCTASE AND USES THEREOF” (National Research Council of Canada, priority 2007, published 2010).
# “Also recorded” adds a separate entry of the source.
# Key:
# Plasmodium falciparum = conditions: more active than artesunate; cited from earlier work
# [1] = biological target: T1, recombinant AaDBR2 (artemisinic aldehyde double bond reductase) (Artemisia annua, UniProt C5H429, A226G/L231G/N16K); test: In vitro enzyme assays of recombinant AaDBR2 with potential substrates, GC/MS analysis; format: biochemical; conditions: for activity of AaDBR2 on the substance as substrate: tested as potential substrate, with NADPH, GC/MS
# T1 construct: This ORF encodes a 415-amino acid protein with a predicted molecular mass of 45.6 kDa; made in house; host or cells: E. coli Rosetta 2(DE3)
# T1 sequence (C5H429 other isoform, or with tags, fused parts or gaps N16K/A226G/L231G): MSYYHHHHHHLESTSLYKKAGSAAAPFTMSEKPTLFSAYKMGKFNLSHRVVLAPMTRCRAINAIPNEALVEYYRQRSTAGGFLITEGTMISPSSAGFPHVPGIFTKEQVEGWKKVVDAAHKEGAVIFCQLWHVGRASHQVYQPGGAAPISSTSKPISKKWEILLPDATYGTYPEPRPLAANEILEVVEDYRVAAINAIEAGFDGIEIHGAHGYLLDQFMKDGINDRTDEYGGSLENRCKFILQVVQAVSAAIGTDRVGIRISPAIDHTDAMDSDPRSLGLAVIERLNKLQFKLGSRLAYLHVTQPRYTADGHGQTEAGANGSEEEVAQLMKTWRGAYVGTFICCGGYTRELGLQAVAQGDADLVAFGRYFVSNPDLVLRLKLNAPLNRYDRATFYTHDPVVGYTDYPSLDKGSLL
# Procedure: The purified recombinant His-tagged AaDBR2 protein was assayed with artemisinic aldehyde, followed by gas chromatography/mass spectrometry analysis. Enzyme reactions were initiated by adding the 0.4 mM artemisinic aldehyde to 300 μL reaction mixture containing 50 mM Tris-HCl (pH 8.0), 1 mM NADPH, 2 mM DTT and 2.0 μg of AaDBR2. Negative controls were carried out with boiled proteins, without NADPH. Reactions were allowed to proceed for 30 minutes at 30° C. with shaking, stopped by adding 15 μL acetic acid and extracted with 100 μL ethyl acetate. The ethyl acetate extracts were pooled and partially evaporated prior to GC-MS analysis. The reaction products were confirmed by comparing GC retention time and MS data with those of synthetic (11R)-dihydroartemisinic aldehyde. For quantification, octadecane was used as an internal standard.
# (§1) For comparison of the catalytic properties of AaDBR2 against other substrates, reaction mixtures were pre-warmed to 30° C., and reactions were initiated by addition of AaDBR2. The pH optimum of the purified AaDBR2 was determined to be 7.5 in assay that included one of three 50 mM buffers (MES, HEPES, and Tris-HCl) adjusted to between pH 5.5 and 9.0 in 0.5-unit intervals and 0.5 mM artemisinic aldehyde and 0.48 μg of purified recombinant AaDBR2. Apparent kinetic parameters were determined under conditions that limited conversion to less than 10% as follows. Concentrations of artemisinic aldehyde (6-250 μM, 0.24 μg of AaDBR2, 2 min), 2-cyclohexen-1-one (80-10,000 μM, 0.48 μg of AaDBR2, 10 min), and (+)-carvone (20-5000 μM, 0.48 μg AaDBR2, 10 min) were varied in the presence of 1 mM NADPH. To assess cofactor specificity, concentrations of NADPH (10-640 μM, 0.48 μg of AaDBR2, 2 min) and NADH (0.2-13 mM, 1.9 μg of AaDBR2, 2 min) were varied in the presence of 0.5 mM artemisinic aldehyde. The ethyl acetate extracts from triplicate reaction mixtures were directly analyzed by GC/MS. Octadecane was used as an internal standard to quantify the products formed from the reactions using response factors determined using standards for each enzyme product. Km and kcat values were determined by nonlinear regression analysis using GraphPad™ software (GraphPad™ Software Inc., San Diego, Calif.).
# [2] = biological target: T1, recombinant AaDBR2 (artemisinic aldehyde double bond reductase); test: Apparent kinetic parameters of purified recombinant AaDBR2; format: biochemical
# Procedure: as §1
# [3] = cofactor varied in the presence of 0.5 mM artemisinic aldehyde
# [4] = substrate varied in the presence of 1 mM NADPH, 30° C.
Structure (SMILES),activity of AaDBR2 on the substance as substrate [1],further results
C[C@H]1[C@H](N2CCS(=O)(=O)CC2)O[C@@H]2O[C@@]3(C)CC[C@H]4[C@H](C)CC[C@@H]1[C@@]24OO3 [Artemisone],,activity relative to artesunate (Plasmodium falciparum): 10-30 fold
C=C(C(=O)O)[C@@H]1CC[C@@H](C)[C@@H]2CCC(C)=C[C@@H]21 [artemisinic acid],No activity was detected,
NC(=O)C1=CN([C@@H]2O[C@H](COP(=O)(O)OP(=O)(O)OC[C@H]3O[C@@H](n4cnc5c(N)ncnc54)[C@H](O)[C@@H]3O)[C@@H](O)[C@H]2O)C=CC1 [NADH],,"enzyme activity in the presence of the cofactor ([1]; preliminary experiments): active; Km [2, 3]: 770 µM; kcat [2, 3]: 1.3 s⁻¹"
C=C(C=O)[C@@H]1CC[C@@H](C)[C@@H]2CCC(C)=C[C@@H]21 [artemisinic aldehyde],has activity,"Km lower relative to 2-cyclohexen-1-one and (+)-carvone ([2]; Table 2 comparison): more than 30 fold; Km [2, 4]: 19 µM; kcat [2, 4]: 2.6 s⁻¹"
"C=C1C(=O)CC2(C(C)C)CC12 (stereo not drawn) [sabinone, Sabinone]",No activity was detected,
NC(=O)C1=CN([C@@H]2O[C@H](COP(=O)(O)OP(=O)(O)OC[C@H]3O[C@@H](n4cnc5c(N)ncnc54)[C@H](OP(=O)(O)O)[C@@H]3O)[C@@H](O)[C@H]2O)C=CC1 [NADPH],,"Km [2, 3]: 95 µM; kcat [2, 3]: 2.5 s⁻¹"
CCCCCC/C=C/C=O [2E-nonenal],low activity; also recorded: No activity was detected,"rate relative to the rate for artemisinic aldehyde ([1]; AaDBR2 substrate, FIG. 8): about 12%"
"C=C(CO)[C@@H]1CC[C@@H](C)[C@@H]2CCC(C)=C[C@@H]21 [artemisinic alcohol, Artemisinic alcohol]",No activity was detected,
O=C1C=CCCC1 [2-cyclohexen-1-one],has activity,
"C=C1C(=O)O[C@@]23[C@H]1CC[C@@H](C)[C@@H]2CC[C@@]1(C)O[C@@H]31 [arteannuin B, Arteannuin B]",No activity was detected,
CC1=CC[C@@H]2C[C@H]1C2(C)C [(+)-α-pinene],No activity was detected,
C=C1C(=O)O[C@@H]2O[C@@]3(C)CC[C@H]4[C@H](C)CC[C@@H]1[C@@]24OO3 [artemisitene],No activity was detected,
COc1cc(/C=C/C=O)ccc1O [coniferyl aldehyde],No activity was detected,
"C=C(C)[C@H]1CC=C(C)C(=O)C1 [(+)-carvone, (+)-Carvone]",has activity,"Km [2, 4]: 650 µM; kcat [2, 4]: 0.86 s⁻¹"
CC(C)=C1CC[C@@H](C)CC1=O [(+)-pulegone],No activity was detected,
